Data as given in patent publication US20050250818A1, “Ortho substituted aryl or heteroaryl amide compounds” (Pfizer Inc, priority 2004, published 2005).

Biological target: T1, human EP4 receptors (Homo sapiens, UniProt P35408)
T1 construct: expressed in transfected cells
Test: cAMP assay in human EP4 transfectant
Format: cell-based
Conditions: HEK293 cells expressing human EP4 receptors; 1 nM PGE2, 0.2 mM IBMX, 37° C. for 10 min
Procedure: cAMP Assay in Human EP4 Transfectant HEK293 cells expressing human EP4 receptors (hEP4 cells) are maintained in DMEM containing 10% FBS and 500 μg/ml geneticin. For harvesting hEP4 cells, culture medium is aspirated and cells in 75 cm^2 flask are washed with 10 ml of phosphate buffered saline (PBS). Another 10 ml of PBS is added to the cells and incubated for 20 min at room temperature. Human EP4 cells are harvested by pipetting and centrifuged at 300×g for 4 min. Cells are resuspended in DMEM without neutral red at a density of 7×10^5 cells/ml containing 0.2 mM IBMX (PDE inhibitor), 1 nM PGE2 and test compounds in PCR-tubes, and incubated at 37° C. for 10 min. The reaction is stopped by heating at 100° C. for 10 min with thermal cycler. Concentration of cAMP in reaction mixtures is determined with SPA cAMP Kit (Amersham) or cAMP Screen™ (Applied Biosystems) according to the manufacture's instruction. Reference: Eur. J. Pharmacol. 340 (1997) 227-241 cAMP assay in human EP4 transfectant were conducted using the method described above. IC50: the concentration of the individual compound required to reduce the amount of ligand by 50%.

T1 sequence (P35408 whole entry): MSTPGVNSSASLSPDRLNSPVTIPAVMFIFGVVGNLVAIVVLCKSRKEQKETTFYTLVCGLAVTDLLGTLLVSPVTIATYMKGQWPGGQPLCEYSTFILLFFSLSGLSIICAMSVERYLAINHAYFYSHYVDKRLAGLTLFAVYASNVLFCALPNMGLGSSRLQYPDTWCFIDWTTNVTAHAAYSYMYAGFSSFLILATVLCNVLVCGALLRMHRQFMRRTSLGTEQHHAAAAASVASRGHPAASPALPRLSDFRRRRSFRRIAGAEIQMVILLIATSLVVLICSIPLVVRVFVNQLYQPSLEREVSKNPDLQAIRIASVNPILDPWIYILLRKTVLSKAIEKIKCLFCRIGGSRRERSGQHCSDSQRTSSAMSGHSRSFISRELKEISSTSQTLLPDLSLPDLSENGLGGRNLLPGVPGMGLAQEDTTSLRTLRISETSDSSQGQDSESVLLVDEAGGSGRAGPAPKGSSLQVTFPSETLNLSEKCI

| Compound | IC50 |
| --- | --- |
| C[C@H](NC(=O)c1cc(Cl)cnc1OCc1ccccc1Cl)c1ccc(C(=O)O)cc1 [EXAMPLE 39, 4-{(1S)-1-[({5-CHLORO-2-[(2-CHLOROBENZYL)OXY]PYRIDIN-3-YL}CARBONYL)AMINO]ETHYL}BENZOIC ACID] | 76 nM |
| C[C@H](NC(=O)c1cc(Cl)cnc1OCc1ccc(Cl)cc1)c1ccc(C(=O)O)cc1 [EXAMPLE 40, 4-{(1S)-1-[({5-CHLORO-2-[(4-CHLOROBENZYL)OXY]PYRIDIN-3-YL}CARBONYL)AMINO]ETHYL}BENZOIC ACID] | 72 nM |
| C[C@H](NC(=O)c1cc(Cl)ccc1OCc1ccccc1C#N)c1ccc(C(=O)O)cc1 [EXAMPLE 41, 4-[(1S)-1-({5-CHLORO-2-[(2-CYANOBENZYL)OXY]BENZOYL}AMINO)ETHYL]BENZOIC ACID] | 39 nM |
| C[C@H](NC(=O)c1cc(Cl)ccc1OCCC1CCOCC1)c1ccc(C(=O)O)cc1 [EXAMPLE 42, 4-[(1S)-1-({5-CHLORO-2-[2-(TETRAHYDRO-2H-PYRAN-4-YL)ETHOXY]BENZOYL}AMINO)ETHYL]BENZOIC ACID] | 467 nM |
| C[C@H](NC(=O)c1cc(Cl)ccc1OCc1cccc(F)c1)c1ccc(C(=O)O)cc1 [EXAMPLE 43, 4-[(1S)-1-({5-CHLORO-2-[(3-FLUOROBENZYL)OXY]BENZOYL}AMINO)ETHYL]BENZOIC ACID] | 140 nM |
| Cc1cc(COc2ccc(Cl)cc2C(=O)N[C@@H](C)c2ccc(C(=O)O)cc2)no1 [EXAMPLE 44, 4-[(1S)-1-({5-CHLORO-2-[(5-METHYLISOXAZOL-3-YL)METHOXY]BENZOYL}AMINO)ETHYL]BENZOIC ACID] | 130 nM |
| C[C@H](NC(=O)c1cc(Cl)ccc1OCc1ccc(Cl)cc1F)c1ccc(C(=O)O)cc1 [EXAMPLE 45, 4-[(1S)-1-({5-CHLORO-2-[(4-CHLORO-2-FLUOROBENZYL)OXY]BENZOYL}AMINO)ETHYL]BENZOIC ACID] | 65 nM |
| C[C@H](NC(=O)c1cc(Cl)ccc1OCc1ccc(F)cc1Cl)c1ccc(C(=O)O)cc1 [EXAMPLE 46, 4-[(1S)-1-({5-CHLORO-2-[(2-CHLORO-4-FLUOROBENZYL)OXY]BENZOYL}AMINO)ETHYL]BENZOIC ACID] | 55 nM |
| C[C@H](NC(=O)c1cc(Cl)ccc1OCc1ncccc1Cl)c1ccc(C(=O)O)cc1 [EXAMPLE 47, 4-[(1S)-1-({5-CHLORO-2-[(3-CHLOROPYRIDIN-2-YL)METHOXY]BENZOYL}AMINO)ETHYL]BENZOIC ACID] | 480 nM |
| C[C@H](NC(=O)c1cc(Cl)cnc1N(C)Cc1ccccc1Cl)c1ccc(C(=O)O)cc1 [EXAMPLE 48, 4-{(1S)-1-[({5-CHLORO-2-[(2-CHLOROBENZYL)(METHYL)AMINO]PYRIDIN-3-YL}CARBONYL)AMINO]ETHYL}BENZOIC ACID] | 100 nM |
| C[C@H](NC(=O)c1cc(Cl)ccc1OCC1CCCO1)c1ccc(C(=O)O)cc1 (stereo partly drawn) [EXAMPLE 49, 4-((1S)-1-{[5-CHLORO-2-(TETRAHYDROFURAN-2-YLMETHOXY)BENZOYL]AMINO}ETHYL)BENZOIC ACID] | 360 nM |
| C[C@H](NC(=O)c1cc(Cl)cnc1N(C)Cc1ccccc1F)c1ccc(C(=O)O)cc1 [EXAMPLE 50, 4-{(1S)-1-[({5-CHLORO-2-[(2-FLUOROBENZYL)(METHYL)AMINO]PYRIDIN-3-YL}CARBONYL)AMINO]ETHYL}BENZOIC ACID] | 120 nM |
| C[C@H](NC(=O)c1cc(Cl)cnc1N(C)Cc1ccc(Cl)cc1)c1ccc(C(=O)O)cc1 [EXAMPLE 51, 4-{(1S)-1-[({5-CHLORO-2-[(4-CHLOROBENZYL)(METHYL)AMINO]PYRIDIN-3-YL}CARBONYL)AMINO]ETHYL}BENZOIC ACID] | 25 nM |
| C[C@H](NC(=O)c1cc(Cl)cnc1N(C)Cc1cccc(Cl)c1)c1ccc(C(=O)O)cc1 [EXAMPLE 52, 4-{(1S)-1-[({5-CHLORO-2-[(3-CHLOROBENZYL)(METHYL)AMINO]PYRIDIN-3-YL}CARBONYL)AMINO]ETHYL}BENZOIC ACID] | 65 nM |
| C[C@H](NC(=O)c1cc(Cl)cnc1N(C)Cc1cccc(F)c1)c1ccc(C(=O)O)cc1 [EXAMPLE 53, 4-{(1S)-1-[({5-CHLORO-2-[(3-FLUOROBENZYL)(METHYL)AMINO]PYRIDIN-3-YL}CARBONYL)AMINO]ETHYL}BENZOIC ACID] | 180 nM |
| C[C@H](NC(=O)c1cc(Cl)cnc1N(C)Cc1ccc(F)cc1)c1ccc(C(=O)O)cc1 [EXAMPLE 54, 4-{(1S)-1-[({5-CHLORO-2-[(4-FLUOROBENZYL)(METHYL)AMINO]PYRIDIN-3-YL}CARBONYL)AMINO]ETHYL}BENZOIC ACID] | 110 nM |
